Source: ChEMBL document CHEMBL3045594, “Synthesis and evaluation of substituted 5-(3-chloro-2-oxo-4-phenylazetidin-1-ylamino)pyrimidine-2,4,6(1H,3H,5H)-triones against pentylenetetrazole-induced convulsant in mice” (Med Chem Res, 2012)

Assays:
Mus musculus [1] = assay: Acute toxicity in Mus musculus (mouse) at 100 to 200 mg/kg, ip; type: organism-based; parameters: dose 100-200 mg/kg, route intraperitoneal; conditions: in vivo
Mus musculus [2] = assay: Anticonvulsant activity in Mus musculus (mouse) subcutaneous PTZ-induced seizure assessed as carbonyl protein level at 20 mg/kg, ip administered 30 min before PTZ challenge; type: functional
Mus musculus [3] = assay: Acute toxicity in Mus musculus (mouse) assessed as behavioral changes at 1000 mg/kg, ip; type: organism-based; parameters: dose 1000 mg/kg, route intraperitoneal; conditions: in vivo
Mus musculus [4] = assay: Anticonvulsant activity in Mus musculus (mouse) subcutaneous PTZ-induced seizure assessed as reduced nitrite level per mg of protein at 40 mg/kg, ip administered 30 min before PTZ challenge by Griess reaction; type: functional
Mus musculus [5] = assay: Anticonvulsant activity in Mus musculus (mouse) assessed as protection against subcutaneous PTZ-induced seizure at 20 mg/kg, ip administered 30 min before PTZ challenge; type: functional
Mus musculus [6] = assay: Anticonvulsant activity in Mus musculus (mouse) subcutaneous PTZ-induced seizure assessed as reduced glutathione level per mg of protein at 20 mg/kg, ip administered 30 min before PTZ challenge by Ellman method; type: functional
[7] = Acute toxicity in Mus musculus (mouse) assessed as mortality at 1000 mg/kg, ip; type: organism-based; parameters: dose 1000 mg/kg, route intraperitoneal; conditions: in vivo, read-out: Activity
Mus musculus [8] = assay: Anticonvulsant activity in Mus musculus (mouse) subcutaneous PTZ-induced seizure assessed as malondialdehyde level at 40 mg/kg, ip administered 30 min before PTZ challenge by TBARS assay; type: functional
Mus musculus [9] = assay: Anticonvulsant activity in Mus musculus (mouse) assessed as protection against subcutaneous PTZ-induced seizure at 40 mg/kg, ip administered 30 min before PTZ challenge; type: functional
Mus musculus [10] = assay: Anticonvulsant activity in Mus musculus (mouse) subcutaneous PTZ-induced seizure assessed as carbonyl protein level at 40 mg/kg, ip administered 30 min before PTZ challenge; type: functional
Mus musculus [11] = assay: Anticonvulsant activity in Mus musculus (mouse) subcutaneous PTZ-induced seizure assessed as malondialdehyde level at 20 mg/kg, ip administered 30 min before PTZ challenge by TBARS assay; type: functional
Mus musculus [12] = assay: Anticonvulsant activity in Mus musculus (mouse) subcutaneous PTZ-induced seizure assessed as reduced nitrite level per mg of protein at 20 mg/kg, ip administered 30 min before PTZ challenge by Griess reaction; type: functional
Mus musculus [13] = assay: Anticonvulsant activity in Mus musculus (mouse) subcutaneous PTZ-induced seizure assessed as reduced glutathione level per mg of protein at 40 mg/kg, ip administered 30 min before PTZ challenge by Ellman method; type: functional
Mus musculus [14] = assay: Anticonvulsant activity in Mus musculus (mouse) subcutaneous PTZ-induced seizure assessed as reduced glutathione level per mg of protein at 80 mg/kg, ip administered 30 min before PTZ challenge by Ellman method; type: functional
Mus musculus [15] = assay: Anticonvulsant activity in Mus musculus (mouse) assessed as protection against subcutaneous PTZ-induced seizure at 80 mg/kg, ip administered 30 min before PTZ challenge; type: functional
Mus musculus [16] = assay: Anticonvulsant activity in Mus musculus (mouse) subcutaneous PTZ-induced seizure assessed as carbonyl protein level at 80 mg/kg, ip administered 30 min before PTZ challenge; type: functional
Mus musculus [17] = assay: Anticonvulsant activity in Mus musculus (mouse) subcutaneous PTZ-induced seizure assessed as reduced nitrite level per mg of protein at 80 mg/kg, ip administered 30 min before PTZ challenge by Griess reaction; type: functional
Mus musculus [18] = assay: Anticonvulsant activity in Mus musculus (mouse) subcutaneous PTZ-induced seizure assessed as malondialdehyde level at 80 mg/kg, ip administered 30 min before PTZ challenge by TBARS assay; type: functional

Row | Structure (SMILES) | Activity (Mus musculus [1]) | Activity (Mus musculus [2]) | Activity (Mus musculus [3]) | Activity (Mus musculus [4]) | Activity (Mus musculus [5]) | Activity (Mus musculus [6]) | mortality [7] | Activity (Mus musculus [8]) | Activity (Mus musculus [9]) | Activity (Mus musculus [10]) | Activity (Mus musculus [11]) | Activity (Mus musculus [12]) | Activity (Mus musculus [13]) | Activity (Mus musculus [14]) | Activity (Mus musculus [15]) | Activity (Mus musculus [16]) | Activity (Mus musculus [17]) | Activity (Mus musculus [18])
1 | O=C1NC(=O)C(NN2C(=O)C(Cl)C2c2ccccc2)C(=O)N1 (centres undefined) | Non-toxic | 30.74 nmol/mg | Toxic | 0.48 µmol | 16% | 0.031 µmol | 70% | 44.04 nmol/mg | 16% | 29.61 nmol/mg | 48.36 nmol/mg | 0.46 µmol | 0.036 µmol |  |  |  |  | 
2 | CCCC(CCC)C(=O)[O-].[Na+] [VALPROATE SODIUM] |  |  |  |  |  |  |  |  |  |  |  |  |  | 0.089 µmol | 100% | 19.06 nmol/mg | 0.54 µmol | 28.13 nmol/mg
3 | COc1ccc(C2C(Cl)C(=O)N2NC2C(=O)NC(=O)NC2=O)cc1 (centres undefined) | Non-toxic | 27.53 nmol/mg | Toxic | 0.49 µmol | 33% | 0.043 µmol | 70% | 42.91 nmol/mg | 66% | 25.94 nmol/mg | 47.11 nmol/mg | 0.47 µmol | 0.047 µmol |  |  |  |  | 
4 | COc1cc(C2C(Cl)C(=O)N2NC2C(=O)NC(=O)NC2=O)ccc1O (centres undefined) | Non-toxic | 21.68 nmol/mg | Toxic | 0.54 µmol | 66% | 0.081 µmol | 70% | 30.68 nmol/mg | 83% | 20.48 nmol/mg | 35.19 nmol/mg | 0.53 µmol | 0.084 µmol |  |  |  |  | 
